Source: PubChem BioAssay AID328 (DTP/NCI, 2004)
Where “and” joins values, the source holds several entries; their conditions need not be identical. Identical values can stand only once. Toxic doses and inconclusive results are not listed.

System: BDF1 mice, P388 leukemia ip, median survival T/C
Experiment: NCI In Vivo Anticancer Drug Screen. Data for tumor model P388 Leukemia (intraperitoneal) in B6D2F1 (BDF1) mice
Conditions: endpoint: median survival time, higher = longer survival
Method in brief: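 Mice carrying the transplantable tumour receive compound or vehicle. Survival is followed in each arm, and the treated measure is divided by the vehicle measure.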

[1] = dose: 0.78 mg/kg/injection, schedule: Q01DX009 (ip), vehicle: Klucel (hydroxypropylcellulose) (HPC)
[2] = dose: 1.56 mg/kg/injection, schedule: Q01DX009 (ip), vehicle: Klucel (hydroxypropylcellulose) (HPC)
[3] = dose: 3.12 mg/kg/injection, schedule: Q01DX009 (ip), vehicle: Klucel (hydroxypropylcellulose) (HPC)
[4] = dose: 12.5 mg/kg/injection, schedule: Q01DX009 (ip), vehicle: Klucel (hydroxypropylcellulose) (HPC)
[5] = dose: 50.0 mg/kg/injection, schedule: Q01DX009 (ip), vehicle: saline with Tween-80
[6] = dose: 100.0 mg/kg/injection, schedule: Q01DX009 (ip), vehicle: saline with Tween-80
[7] = dose: 50.0 mg/kg/injection, schedule: Q01DX009 (ip), vehicle: Klucel (hydroxypropylcellulose) (HPC)
[8] = dose: 100.0 mg/kg/injection, schedule: Q01DX009 (ip), vehicle: Klucel (hydroxypropylcellulose) (HPC)
[9] = dose: 200.0 mg/kg/injection, schedule: Q01DX009 (ip), vehicle: Klucel (hydroxypropylcellulose) (HPC)
[10] = dose: 100.0 mg/kg/injection, schedule: Q04DX003 (ip), vehicle: Klucel (hydroxypropylcellulose) (HPC)
[11] = dose: 25.0 mg/kg/injection, schedule: Q01DX009 (ip), vehicle: Klucel (hydroxypropylcellulose) (HPC)
[12] = dose: 200.0 mg/kg/injection, schedule: Q01DX009 (ip), vehicle: saline with Tween-80
[13] = dose: 25.0 mg/kg/injection, schedule: Q01DX009 (ip), vehicle: saline
[14] = dose: 100.0 mg/kg/injection, schedule: Q01DX009 (ip), vehicle: saline
[15] = dose: 200.0 mg/kg/injection, schedule: Q01DX009 (ip), vehicle: saline

SMILES: O=C(CCC(=O)[O][Sn]([c]1ccccc1)([c]1ccccc1)[c]1ccccc1)[O][Sn]([c]1ccccc1)([c]1ccccc1)[c]1ccccc1
- T/C (dose: 0.39 mg/kg/injection, schedule: Q01DX009 (ip), vehicle: Klucel (hydroxypropylcellulose) (HPC)): 113 % of control
- T/C [1]: 95 % of control
- T/C [2]: 95 % of control
- T/C [3]: 100 % of control and 104 % of control
- T/C [4]: 120 % of control
- T/C (dose: 40.0 mg/kg/injection, schedule: Q04DX003 (ip), vehicle: Klucel (hydroxypropylcellulose) (HPC)): 104 % of control

SMILES: COC(=O)c1ncccc1C(=O)O
- T/C (dose: 25.0 mg/kg/injection, schedule: Q01DX009 (ip), vehicle: saline with Tween-80): 86 % of control
- T/C [5]: 95 % of control
- T/C [6]: 90 % of control

SMILES: COC(=O)c1cc[nH]c1CC(=O)O
- T/C (dose: 100.0 mg/kg/injection, schedule: Q01DX001 (ip), vehicle: saline with Tween-80): 101 % of control
- T/C (dose: 200.0 mg/kg/injection, schedule: Q01DX001 (ip), vehicle: saline with Tween-80): 106 % of control
- T/C (dose: 400.0 mg/kg/injection, schedule: Q01DX001 (ip), vehicle: saline with Tween-80): 110 % of control

SMILES: O=S1(=O)CC(Cl)(Br)C1
- T/C [7]: 105 % of control
- T/C [8]: 114 % of control
- T/C [9]: 123 % of control

SMILES: CCOC(=O)C(=O)Cc1sccc1[N+](=O)[O-]
- T/C [8]: 105 % of control
- T/C [10]: 86 % of control
- T/C [9]: 100 % of control
- T/C (dose: 400.0 mg/kg/injection, schedule: Q01DX009 (ip), vehicle: Klucel (hydroxypropylcellulose) (HPC)): 105 % of control
- T/C (dose: 400.0 mg/kg/injection, schedule: Q04DX003 (ip), vehicle: Klucel (hydroxypropylcellulose) (HPC)): 91 % of control

SMILES: C[n+]1ccccc1/C=C/c1cccc(O)c1
- T/C [3]: 96 % of control
- T/C (dose: 6.25 mg/kg/injection, schedule: Q01DX009 (ip), vehicle: Klucel (hydroxypropylcellulose) (HPC)): 96 % of control
- T/C [4]: 102 % of control
- T/C [11]: 102 % of control

SMILES: N#CC(C#N)=C(C#N)C#N
- T/C [1]: 90 % of control
- T/C [2]: 100 % of control
- T/C (dose: 1.56 mg/kg/injection, schedule: Q04DX003 (ip), vehicle: Klucel (hydroxypropylcellulose) (HPC)): 100 % of control
- T/C (dose: 3.13 mg/kg/injection, schedule: Q01DX009 (ip), vehicle: Klucel (hydroxypropylcellulose) (HPC)): 100 % of control
- T/C (dose: 3.13 mg/kg/injection, schedule: Q04DX003 (ip), vehicle: Klucel (hydroxypropylcellulose) (HPC)): 100 % of control

SMILES: O=C(O)CCSc1nc2ccccc2s1
- T/C (dose: 50.0 mg/kg/injection, schedule: Q04DX003 (ip), vehicle: Klucel (hydroxypropylcellulose) (HPC)): 100 % of control
- T/C [10]: 100 % of control
- T/C (dose: 200.0 mg/kg/injection, schedule: Q04DX003 (ip), vehicle: Klucel (hydroxypropylcellulose) (HPC)): 113 % of control

SMILES: COc1cccc2c1C(=O)c1c(O)c3c(c(O)c1C2=O)C[C@@](O)(C(=O)CO)C[C@@H]3OC1CC(NC(C)=O)C(O)C(C)O1 (stereo not given in full)
- T/C (dose: 25.0 mg/kg/injection, schedule: Q04DX009 (ip), vehicle: other): 119 % of control
- T/C (dose: 100.0 mg/kg/injection, schedule: Q04DX009 (ip), vehicle: other): 119 % of control
- T/C (dose: 200.0 mg/kg/injection, schedule: Q04DX009 (ip), vehicle: other): 119 % of control

SMILES: COc1cccc(/C=N/NC(=S)NC2CC3CCC2C3)c1O (stereo not given)
- T/C [5]: 100 % of control
- T/C [6]: 95 % of control
- T/C [12]: 103 % of control

SMILES: CCN(CC)C(=O)c1cccc(COc2ccc(N3C(N)=NC(N)=NC3(C)C)cc2Cl)c1
- T/C (dose: 16.5 mg/kg/injection, schedule: Q01DX009 (ip), vehicle: saline): 110 % of control
- T/C [13]: 120 % of control
- T/C (dose: 37.5 mg/kg/injection, schedule: Q01DX009 (ip), vehicle: saline): 120 % of control

SMILES: Nc1nc(N)nc(-c2ccc([N+](=O)[O-])o2)n1
- T/C [6]: 102 % of control
- T/C [12]: 96 % of control
- T/C (dose: 400.0 mg/kg/injection, schedule: Q01DX009 (ip), vehicle: saline with Tween-80): 106 % of control

SMILES: Cc1nc2n[nH]c(N)c2nc1C
- T/C [14]: 100 % of control
- T/C [15]: 100 % of control
- T/C (dose: 400.0 mg/kg/injection, schedule: Q01DX009 (ip), vehicle: saline): 91 % of control

SMILES: COC(=O)C12OCC34C(CC5C(C)=C(O)C(=O)CC5(C)C3C(O)C1O)OC(=O)C(OC(=O)CC(C)C(C)C)C24 (stereo not given)
- T/C (dose: 2.0 mg/kg/injection, schedule: Q01DX009 (ip), vehicle: saline + alcohol): 156 % of control
- T/C (dose: 4.0 mg/kg/injection, schedule: Q01DX009 (ip), vehicle: saline + alcohol): 176 % of control
- T/C (dose: 7.0 micrograms/kg/injection, schedule: Q01DX009 (ip), vehicle: saline + alcohol): 100 % of control
- T/C (dose: 15.0 micrograms/kg/injection, schedule: Q01DX009 (ip), vehicle: saline + alcohol): 95 % of control and 119 % of control
- T/C (dose: 27.5 micrograms/kg/injection, schedule: Q01DX009 (ip), vehicle: saline): 120 % of control
- T/C (dose: 31.0 micrograms/kg/injection, schedule: Q01DX009 (ip), vehicle: saline + alcohol): 107 % of control and 113 % of control
- T/C (dose: 62.0 micrograms/kg/injection, schedule: Q01DX009 (ip), vehicle: saline + alcohol): 115 % of control and 122 % of control
- T/C (dose: 440.0 micrograms/kg/injection, schedule: Q01DX009 (ip), vehicle: saline): 150 % of control
- T/C (dose: 500.0 micrograms/kg/injection, schedule: Q01DX009 (ip), vehicle: saline + alcohol): 123 % of control
- T/C (dose: 1000.0 micrograms/kg/injection, schedule: Q01DX009 (ip), vehicle: saline + alcohol): 163 % of control
- T/C (dose: 2000.0 micrograms/kg/injection, schedule: Q01DX009 (ip), vehicle: saline + alcohol): 168 % of control
- T/C (dose: 4000.0 micrograms/kg/injection, schedule: Q01DX009 (ip), vehicle: saline + alcohol): 163 % of control

SMILES: N[C@H](C(=O)O)[C@H]1ON=C(Cl)[C@@H]1O
- T/C (dose: 0.5 mg/kg/injection, schedule: Q01DX009 (ip), vehicle: saline with Tween-80): 105 % of control
- T/C (dose: 1.0 mg/kg/injection, schedule: Q01DX009 (ip), vehicle: saline with Tween-80): 105 % of control
- T/C (dose: 2.0 mg/kg/injection, schedule: Q01DX009 (ip), vehicle: saline with Tween-80): 117 % of control
- T/C (dose: 6.25 mg/kg/injection, schedule: Q01DX009 (ip), vehicle: saline): 160 % of control
- T/C (dose: 8.0 mg/kg/injection, schedule: Q01DX009 (ip), vehicle: saline): 160 % of control
- T/C [4]: 239 % of control
- T/C (dose: 12.5 mg/kg/injection, schedule: Q01DX009 (ip), vehicle: saline): 165 % of control
- T/C (dose: 12.5 mg/kg/injection, schedule: Q04DX003 (ip), vehicle: saline): 96 % of control
- T/C (dose: 16.0 mg/kg/injection, schedule: Q01DX009 (ip), vehicle: saline): 168 % of control
- T/C [11]: 195 % of control
- T/C [13]: 195 % of control
- T/C (dose: 25.0 mg/kg/injection, schedule: Q04DX003 (ip), vehicle: saline): 111 % of control
- T/C (dose: 32.0 mg/kg/injection, schedule: Q01DX009 (ip), vehicle: saline): 167 % of control
- T/C (dose: 44.0 mg/kg/injection, schedule: Q01DX009 (ip), vehicle: other): 158 % of control
- T/C [7]: 188 % of control
- T/C (dose: 50.0 mg/kg/injection, schedule: Q01DX009 (ip), vehicle: saline): 215 % of control
- T/C (dose: 50.0 mg/kg/injection, schedule: Q04DX003 (ip), vehicle: saline): 111 % of control
- T/C (dose: 64.0 mg/kg/injection, schedule: Q01DX009 (ip), vehicle: saline): 193 % of control
- T/C [8]: 206 % of control
- T/C (dose: 100.0 mg/kg/injection, schedule: Q01DX009 (ip), vehicle: other): 170 % of control
- T/C [14]: 110 % of control
- T/C (dose: 128.0 mg/kg/injection, schedule: Q01DX009 (ip), vehicle: saline): 228 % of control
- T/C [15]: 90 % of control
- T/C (dose: 250.0 mg/kg/injection, schedule: Q01DX009 (ip), vehicle: saline): 192 % of control
- T/C (dose: 256.0 mg/kg/injection, schedule: Q01DX009 (ip), vehicle: saline): 270 % of control
- T/C (dose: 400.0 mg/kg/injection, schedule: Q04DX003 (ip), vehicle: saline): 238 % of control
